The structures appear in SMILES notation. pIC50: −log10 of the molar value. Where only a bound is given, the exact number is not on record here.

The target of experiment [1] is Cathepsin L (Rattus norvegicus, UniProt P07154). The experiment in a line: In vitro inhibition of cathepsin L. It counts as biochemical. To be noted: r rat cathepsin L; substrate N-CBZ-Phe-Arg-AMC; pH 5.0; 10 min incubation at room temperature. As to the method:
TEST EXAMPLE 2 In Vitro Assay Procedure for Cathepsin L […] After 10 min of incubation at room temperature, a 20 μl of 1 mM substrate (N-CBZ-Phe-Arg-AMC, dissolved in DMSO) was added to initiate reaction. Reading is followed up for 10 min at the fluoroscan reader (excitation at 380 nm emission at 460 nm).

For experiment [2], the target named is Cathepsin B (Rattus norvegicus, UniProt P00787). The experiment in a line: In vitro inhibition of cathepsin B. The format is biochemical. To be noted: r rat cathepsin B; substrate N-CBZ-Phe-Arg-AMC; pH 5.1; 10 min incubation at room temperature. The procedure: TEST EXAMPLE 1 In Vitro Assay Procedure for Cathepsin B The compounds of formula I were tested for inhibition of cathepsin B using the known method (A. J. Barret et al., Biochem. J. 1982, 201, 189-198). […] After 10 min of incubation at room temperature, a 20 μl of 5 mM substrate (N-CBZ-Phe-Arg-AMC, dissolved in DMSO) was added to initiate reaction. Reading is followed up for 10 min at the fluoroscan reader (excitation at 380 nm emission at 460 nm).
Cathepsin B, sequence (P00787 80-339): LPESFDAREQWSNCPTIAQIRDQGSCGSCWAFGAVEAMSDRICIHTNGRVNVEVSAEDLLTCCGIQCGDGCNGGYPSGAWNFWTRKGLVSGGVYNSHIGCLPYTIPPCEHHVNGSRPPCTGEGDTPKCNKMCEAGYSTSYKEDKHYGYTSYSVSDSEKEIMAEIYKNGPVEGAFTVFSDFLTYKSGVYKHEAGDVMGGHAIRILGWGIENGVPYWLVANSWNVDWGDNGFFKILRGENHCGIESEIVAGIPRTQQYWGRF

Cathepsin L, sequence (P07154 114-334): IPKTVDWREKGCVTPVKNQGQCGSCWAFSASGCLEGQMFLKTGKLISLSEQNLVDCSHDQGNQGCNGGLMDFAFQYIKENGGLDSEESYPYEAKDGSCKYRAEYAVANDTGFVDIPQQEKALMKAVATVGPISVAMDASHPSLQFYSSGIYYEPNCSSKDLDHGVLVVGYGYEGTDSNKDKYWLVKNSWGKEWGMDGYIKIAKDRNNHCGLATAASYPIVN

The pIC50 is −log10 of the IC50, conventionally taken in molar units. Turning to `O=C(N[C@@H](Cc1ccccc1)C(=O)N[C@@H]1C(=O)N2CCS[C@@H]12)OCc1ccccc1` [Example 1, (5S,6R)-6-(2S-2-benzyloxycarbonylamino-2-phenylmethyl-acetamido)-4-thia-1-azabicyclo [3,2,0] heptan-7-one], the pIC50 in experiment [1] is 5.18; in experiment [2], < 4.30.
In the same order, the values of `O=C(N[C@@H](Cc1ccccc1)C(=O)N[C@@H]1C(=O)N2CCS(=O)(=O)[C@@H]12)OCc1ccccc1` [Example 2, (5S,6R)-6-(2S-2-benzyloxycarbonylamino-2-phenylmethyl-acetamido)-4,4-dioxo-4-thia-1-azabicyclo [3,2,0] heptan-7-one] are 8.85 and 6.46.
As to `O=C(N[C@@H](Cc1ccccc1)C(=O)N[C@@H]1C(=O)N2CCS(=O)(=O)[C@H]12)OCc1ccccc1` [Example 3, (5R,6R)-6-(2S-2-benzyloxycarbonylamino-2-phenylmethyl-acetamido)-4,4-dioxo-4-thia-1-azabicyclo [3,2,0] heptan-7-one], the pIC50 in experiment [1] was 8.02; in experiment [2], 5.22.
Take `O=C(CCc1ccccc1)N[C@@H](CC1CCCCC1)C(=O)N[C@@H]1C(=O)N2CCS[C@@H]12` [Example 4, (5S,6R)-6-{2S-2-(3-phenylpropionoyl)amino-2-cyclohexylmethyl-acetamido}-4-thia-1-azabicyclo [3,2,0] heptan-7-one]: the pIC50 in experiment [1] and in experiment [2] was < 4.30 each time.
With `O=C(CCc1ccccc1)N[C@@H](CC1CCCCC1)C(=O)N[C@@H]1C(=O)N2CCS(=O)(=O)[C@@H]12` [Example 5, (5S,6R)-6-{2S-2-(3-phenylpropionoyl)amino-2-cyclohexylmethyl-acetamido}-4,4-dioxo-4-thia-1-azabicyclo [3,2,0] heptan-7-one], the pIC50 in experiment [1] was 9.15; in experiment [2] it was 6.37.
In the case of `O=C(CCc1ccccc1)N[C@@H](Cc1ccc2ccccc2c1)C(=O)N[C@@H]1C(=O)N2CCS[C@@H]12` [Example 6, (5S,6R)-6-{2S-2-(3-phenylpropionoyl)amino-2-(2-naphthyl)methyl-acetamido}-4-thia-1-azabicyclo [3,2,0] heptan-7-one], the pIC50 is 6.37 in experiment [1] and 4.98 in experiment [2].
In the same order, the values of `O=C(CCc1ccccc1)N[C@@H](Cc1ccc2ccccc2c1)C(=O)N[C@@H]1C(=O)N2CCS(=O)(=O)[C@@H]12` [Example 7, (5S,6R)-6-{2S-2-(3-phenylpropionoyl)amino-2-(2-naphthyl)methyl-acetamido}-4,4-dioxo-4-thia-1-azabicyclo [3,2,0] heptan-7-one] are 8.52 and 6.41.
`O=C(CCc1ccccc1)N[C@@H](Cc1cccs1)C(=O)N[C@@H]1C(=O)N2CCS[C@@H]12` [Example 8, (5S,6R)-6-{2S-2-(3-phenylpropionoyl)amino-2-(2-thienyl)methyl-acetamido}-4-thia-1-azabicyclo [3,2,0] heptan-7-one]: the pIC50 in experiment [1] was 4.93; in experiment [2], < 4.30.
In the same order, the values of `O=C(CCc1ccccc1)N[C@@H](Cc1cccs1)C(=O)N[C@@H]1C(=O)N2CCS(=O)(=O)[C@@H]12` [Example 9, (5S,6R)-6-{2S-2-(3-phenylpropionoyl)amino-2-(2-thienyl)methyl-acetamido}-4,4-dioxo-4-thia-1-azabicyclo [3,2,0] heptan-7-one] are 8.52 and 6.37.
In the same order, the values of `O=C(CCc1ccccc1)N[C@@H](Cc1cccc(F)c1)C(=O)N[C@@H]1C(=O)N2CCS[C@@H]12` [Example 10, (5S,6R)-6-{2S-2-(3-phenylpropionoyl)amino-2-(3-fluorophenyl)methyl-acetamido}4-4-thia-1-azabicyclo [3,2,0] heptan-7-one] are 4.95 and < 4.30.
In the same order, the values of `O=C(CCc1ccccc1)N[C@@H](Cc1cccc(F)c1)C(=O)N[C@@H]1C(=O)N2CCS(=O)(=O)[C@@H]12` [Example 11, (5S,6R)-6-{2S-2-(3-phenylpropionoyl)amino-2-(3-fluorophenyl)methyl-acetamido}-4,4-dioxo-4-thia-1-azabicyclo [3,2,0] heptan-7-one] are 8.48 and 6.00.
Consider `O=C(N[C@@H](Cc1cccnc1)C(=O)N[C@@H]1C(=O)N2CCS[C@@H]12)OCc1ccccc1` [Example 12, (5S,6R)-6-{2S-2-benzyloxycarbonylamino-2-(3-pyridyl)methyl-acetamido}-4-thia-1-azabicyclo [3,2,0] heptan-7-one], for which the pIC50 in experiment [1] was 4.93; in experiment [2], < 4.30.
Regarding `O=C(N[C@@H](Cc1cccnc1)C(=O)N[C@@H]1C(=O)N2CCS(=O)(=O)[C@@H]12)OCc1ccccc1` [Example 13, (5S,6R)-6-{2S-2-benzyloxycarbonylamino-2-(3-pyridyl)methyl-acetamido}-4,4-dioxo-4-thia-1-azabicyclo [3,2,0] heptan-7-one], the pIC50 in experiment [1] is 8.77; in experiment [2], 5.89.
In the same order, the values of `O=C(N[C@@H](Cc1ccccc1)C(=O)N[C@@H]1C(=O)N2CCCS[C@@H]12)OCc1ccccc1` [Example 14, (6S,7R)-7-(2S-2-benzyloxycarbonylamino-2-phenylmethyl-acetamido)-5-thia-1-azabicyclo [4,2,0] octan-8-one] are < 4.30 and < 4.30.
In the same order, the values of `O=C(N[C@@H](Cc1ccccc1)C(=O)N[C@@H]1C(=O)N2CCCS(=O)(=O)[C@@H]12)OCc1ccccc1` [Example 15, (6S,7R)-7-(2S-2-benzyloxycarbonylamino-2-phenylmethyl-acetamido)-5,5-dioxo-5-thia-1-azabicyclo [4,2,0] octan-8-one] are 5.67 and < 4.30.
With `O=C(N[C@@H](Cc1ccccc1)C(=O)N[C@@H]1C(=O)N2CCCS(=O)(=O)[C@H]12)OCc1ccccc1` [Example 16, (6R,7R)-7-(2S-2-benzyloxycarbonylamino-2-phenylmethyl-acetamido)-5,5-dioxo-5-thia-1-azabicyclo [4,2,0] octan-8-one], in experiment [2], the pIC50 was < 4.30.
`O=C(N[C@@H](Cc1ccccc1)C(=O)N[C@@H]1C(=O)N2CC(O)CS[C@@H]12)OCc1ccccc1` (stereo partly drawn) [Example 17, (6S,7R)-7-(2S-2-benzyloxycarbonylamino-2-phenylmethyl-acetamido)-3-hydroxy-5-thia-1-azabicyclo [4,2,0] octan-8-one]: the pIC50 was 5.66 in experiment [1] and < 4.30 in experiment [2].
Consider `COC(=O)[C@@H]1N2C(=O)[C@@H](NC(=O)[C@H](Cc3ccccc3)NC(=O)OCc3ccccc3)[C@H]2S(=O)(=O)C1(C)C` [Example 18, Methyl (2S,5R,6R)-6-(2S-2-benzyloxycarbonylamino-2-phenylmethyl-acetamido)-3,3-dimethyl-7-oxo-4,4-dioxo4-thia-1-azabicyclo[3,2,0]heptane-2-carboxylate], for which the pIC50 was 5.76 in experiment [1] and 4.55 in experiment [2].
In the same order, the values of `CC1(C)[C@H](C(=O)O)N2C(=O)[C@@H](NC(=O)[C@H](Cc3ccccc3)NC(=O)CCc3ccccc3)[C@H]2S1(=O)=O` [Example 19, (2S,5R,6R)-6-{2S-2-(3-phenylpropionoyl)amino-2-phenylmethyl-acetamido}-3,3-dimethyl-7-oxo-4,4-dioxo-4-thia-1-azabicyclo [3,2,0] heptane-2-carboxylic acid] are 5.17 and < 4.30.
For the compound `O=C(N[C@H](Cc1ccccc1)C(=O)N[C@@H]1C(=O)N2CCS(=O)(=O)[C@@H]12)OCc1ccccc1` [Example 20, (5S,6R)-6{2R-2-benzyloxycarbonylamino-2-phenylmethyl-acetamido}-4,4-dioxo4-thia-1-azabicyclo[3,2,0] heptan-7-one], the results for the pIC50 in experiment [1] and in experiment [2] were 7.36 and < 4.30, respectively.
`O=C(N[C@@H](Cc1ccccc1)C(=O)N[C@@H]1C(=O)N2CC[S+]([O-])[C@@H]12)OCc1ccccc1` (stereo partly drawn) [Example 21, (5S,6R)-6-{2S-2-benzyloxycarbonylamino-2-phenylmethyl-acetamido}-4-oxo-4-thia-1-azabicyclo [3,2,0] heptan-7-one]: the figures for the pIC50 in experiment [1] and in experiment [2] were 7.17 and 4.79, respectively.

For the origin of these results see patent publication US6232305A, “Substituted amino bicyclic-β-lactam penam and cepham derivatives as cysteine protease inhibitors” (Naeja Pharmaceutical Inc., priority 1998, dated 2001).
